Reference: the kinase profiling compilation of Christmann-Franck et al. (2016)

Legend:
Experiment in all cases: KINOMEscan competition binding
Conditions in all cases: compound 10.0 µM
MAP4K4 (human) = MAP4K4 (human) (UniProt O95819)
DMPK (human) = DMPK (human) (UniProt Q09013)
ANKK1 (human) = ANKK1 (human) (UniProt Q8NFD2)
BRSK2 (human) = BRSK2 (human) (UniProt Q8IWQ3)
NEK7 (human) = NEK7 (human) (UniProt Q8TDX7)
RPS6KA4 KD1 (human) = RPS6KA4 KD1 (human) (UniProt O75676)
ITK (human) = ITK (human) (UniProt Q08881)
CDKL1 (human) = CDKL1 (human) (UniProt Q00532)
PIK3C2B (human) = PIK3C2B (human) (UniProt O00750)
RPS6KA2 KD1 (human) = RPS6KA2 KD1 (human) (UniProt Q15349)
VRK2 (human) = VRK2 (human) (UniProt Q86Y07)
KDR (human) = KDR (human) (UniProt P35968)
STK4 (human) = STK4 (human) (UniProt Q13043)
DYRK1A (human) = DYRK1A (human) (UniProt Q13627)
CAMKK2 (human) = CAMKK2 (human) (UniProt Q96RR4)
DAPK1 (human) = DAPK1 (human) (UniProt P53355)
PTK6 (human) = PTK6 (human) (UniProt Q13882)
PIK3CA (human) = PIK3CA (human) (UniProt P42336)
PLK3 (human) = PLK3 (human) (UniProt Q9H4B4)
NEK2 (human) = NEK2 (human) (UniProt P51955)
NTRK2 (human) = NTRK2 (human) (UniProt Q16620)
RPS6KA5 KD1 (human) = RPS6KA5 KD1 (human) (UniProt O75582)
NEK9 (human) = NEK9 (human) (UniProt Q8TD19)
TAOK1 (human) = TAOK1 (human) (UniProt Q7L7X3)
CASK (human) = CASK (human) (UniProt O14936)
CDK17 (human) = CDK17 (human) (UniProt Q00537)
LATS1 (human) = LATS1 (human) (UniProt O95835)
CDK4 CCND3 (human) = CDK4 CCND3 (human) (UniProt P11802+P30281)
RIOK2 (human) = RIOK2 (human) (UniProt Q9BVS4)
AKT2 (human) = AKT2 (human) (UniProt P31751)
PIP4K2B (human) = PIP4K2B (human) (UniProt P78356)
CDC42BPG (human) = CDC42BPG (human) (UniProt Q6DT37)
MAP3K10 (human) = MAP3K10 (human) (UniProt Q02779)
CSNK1G1 (human) = CSNK1G1 (human) (UniProt Q9HCP0)
CAMK2G (human) = CAMK2G (human) (UniProt Q13555)
RPS6KA3 KD1 (human) = RPS6KA3 KD1 (human) (UniProt P51812)
PRKCQ (human) = PRKCQ (human) (UniProt Q04759)
MELK (human) = MELK (human) (UniProt Q14680)
PAK3 (human) = PAK3 (human) (UniProt O75914)
EPHA5 (human) = EPHA5 (human) (UniProt P54756)

VRK2 (human), sequence (Q86Y07 whole entry, looked up): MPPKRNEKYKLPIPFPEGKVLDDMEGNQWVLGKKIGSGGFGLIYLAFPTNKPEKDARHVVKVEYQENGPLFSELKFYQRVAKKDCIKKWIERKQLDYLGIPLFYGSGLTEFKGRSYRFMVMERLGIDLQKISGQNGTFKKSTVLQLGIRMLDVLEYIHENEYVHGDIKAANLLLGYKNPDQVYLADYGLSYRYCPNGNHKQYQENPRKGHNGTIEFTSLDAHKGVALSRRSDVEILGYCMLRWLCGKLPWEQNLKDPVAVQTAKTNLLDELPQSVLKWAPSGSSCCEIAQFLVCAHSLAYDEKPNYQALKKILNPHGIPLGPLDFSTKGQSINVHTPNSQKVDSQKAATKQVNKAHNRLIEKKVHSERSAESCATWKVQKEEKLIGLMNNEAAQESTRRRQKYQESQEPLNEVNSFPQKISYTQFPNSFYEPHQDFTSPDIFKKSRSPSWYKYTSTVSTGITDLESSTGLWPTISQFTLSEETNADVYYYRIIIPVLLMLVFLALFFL
TAOK1 (human), sequence (Q7L7X3 whole entry, looked up): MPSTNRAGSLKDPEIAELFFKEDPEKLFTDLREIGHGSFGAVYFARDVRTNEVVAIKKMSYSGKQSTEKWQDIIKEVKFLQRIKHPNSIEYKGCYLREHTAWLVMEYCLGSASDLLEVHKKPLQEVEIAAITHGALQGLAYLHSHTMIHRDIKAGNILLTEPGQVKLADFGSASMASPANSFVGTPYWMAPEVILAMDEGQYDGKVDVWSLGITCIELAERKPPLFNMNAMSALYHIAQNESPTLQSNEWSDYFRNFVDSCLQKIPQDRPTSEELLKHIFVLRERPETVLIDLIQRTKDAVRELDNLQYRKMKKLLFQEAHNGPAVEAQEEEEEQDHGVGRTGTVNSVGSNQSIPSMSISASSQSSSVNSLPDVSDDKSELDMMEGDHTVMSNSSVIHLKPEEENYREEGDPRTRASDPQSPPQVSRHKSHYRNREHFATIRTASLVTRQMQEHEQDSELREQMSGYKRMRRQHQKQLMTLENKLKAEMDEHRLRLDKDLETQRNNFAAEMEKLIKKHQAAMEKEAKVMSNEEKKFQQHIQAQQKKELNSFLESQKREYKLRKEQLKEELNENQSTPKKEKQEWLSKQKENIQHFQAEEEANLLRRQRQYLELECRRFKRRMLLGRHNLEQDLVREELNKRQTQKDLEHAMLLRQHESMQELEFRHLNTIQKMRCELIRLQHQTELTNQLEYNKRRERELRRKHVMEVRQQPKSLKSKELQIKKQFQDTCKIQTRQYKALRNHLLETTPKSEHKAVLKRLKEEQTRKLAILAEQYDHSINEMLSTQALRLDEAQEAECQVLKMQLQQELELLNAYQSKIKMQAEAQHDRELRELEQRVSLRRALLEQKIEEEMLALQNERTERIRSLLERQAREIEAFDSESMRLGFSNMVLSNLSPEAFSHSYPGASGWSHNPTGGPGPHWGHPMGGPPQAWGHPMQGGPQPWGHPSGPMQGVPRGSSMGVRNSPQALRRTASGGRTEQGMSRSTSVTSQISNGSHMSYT
CAMK2G (human), sequence (Q13555 whole entry, looked up): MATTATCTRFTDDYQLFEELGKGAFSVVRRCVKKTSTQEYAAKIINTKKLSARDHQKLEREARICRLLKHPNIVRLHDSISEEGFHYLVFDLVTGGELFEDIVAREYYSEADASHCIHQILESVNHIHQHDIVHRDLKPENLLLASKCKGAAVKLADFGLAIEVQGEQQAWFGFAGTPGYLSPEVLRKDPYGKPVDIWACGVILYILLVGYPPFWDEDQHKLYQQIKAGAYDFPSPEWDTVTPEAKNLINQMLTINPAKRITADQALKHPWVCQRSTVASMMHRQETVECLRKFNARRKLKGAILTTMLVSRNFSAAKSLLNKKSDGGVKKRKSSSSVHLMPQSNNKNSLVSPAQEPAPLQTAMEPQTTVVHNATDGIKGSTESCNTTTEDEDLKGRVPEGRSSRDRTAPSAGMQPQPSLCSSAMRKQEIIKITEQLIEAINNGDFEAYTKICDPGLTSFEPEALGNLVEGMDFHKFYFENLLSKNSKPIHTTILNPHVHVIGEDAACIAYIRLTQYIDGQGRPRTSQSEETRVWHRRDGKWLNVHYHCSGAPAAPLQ
PTK6 (human), sequence (Q13882 whole entry, looked up): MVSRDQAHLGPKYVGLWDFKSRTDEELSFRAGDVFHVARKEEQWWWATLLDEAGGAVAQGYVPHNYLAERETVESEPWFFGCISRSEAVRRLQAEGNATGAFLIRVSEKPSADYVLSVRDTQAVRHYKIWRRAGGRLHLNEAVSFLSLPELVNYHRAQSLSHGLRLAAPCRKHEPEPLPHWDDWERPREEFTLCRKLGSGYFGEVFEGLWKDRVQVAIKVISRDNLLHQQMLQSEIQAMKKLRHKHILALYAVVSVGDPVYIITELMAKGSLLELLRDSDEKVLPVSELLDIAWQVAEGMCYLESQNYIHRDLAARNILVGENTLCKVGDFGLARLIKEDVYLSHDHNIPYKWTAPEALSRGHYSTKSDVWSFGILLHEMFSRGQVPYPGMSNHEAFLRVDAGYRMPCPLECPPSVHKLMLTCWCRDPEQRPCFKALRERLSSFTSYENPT
CDKL1 (human), sequence (Q00532 whole entry, looked up): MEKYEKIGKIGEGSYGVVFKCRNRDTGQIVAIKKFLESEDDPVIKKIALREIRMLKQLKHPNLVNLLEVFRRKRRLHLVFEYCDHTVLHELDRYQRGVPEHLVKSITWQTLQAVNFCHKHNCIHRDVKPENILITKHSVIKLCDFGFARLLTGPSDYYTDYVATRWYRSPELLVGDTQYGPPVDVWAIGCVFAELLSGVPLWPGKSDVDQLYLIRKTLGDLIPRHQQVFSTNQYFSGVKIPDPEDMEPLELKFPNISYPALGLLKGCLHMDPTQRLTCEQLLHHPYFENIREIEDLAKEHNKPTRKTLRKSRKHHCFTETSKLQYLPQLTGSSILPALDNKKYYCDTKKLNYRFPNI
MAP4K4 (human), sequence (O95819 whole entry, looked up): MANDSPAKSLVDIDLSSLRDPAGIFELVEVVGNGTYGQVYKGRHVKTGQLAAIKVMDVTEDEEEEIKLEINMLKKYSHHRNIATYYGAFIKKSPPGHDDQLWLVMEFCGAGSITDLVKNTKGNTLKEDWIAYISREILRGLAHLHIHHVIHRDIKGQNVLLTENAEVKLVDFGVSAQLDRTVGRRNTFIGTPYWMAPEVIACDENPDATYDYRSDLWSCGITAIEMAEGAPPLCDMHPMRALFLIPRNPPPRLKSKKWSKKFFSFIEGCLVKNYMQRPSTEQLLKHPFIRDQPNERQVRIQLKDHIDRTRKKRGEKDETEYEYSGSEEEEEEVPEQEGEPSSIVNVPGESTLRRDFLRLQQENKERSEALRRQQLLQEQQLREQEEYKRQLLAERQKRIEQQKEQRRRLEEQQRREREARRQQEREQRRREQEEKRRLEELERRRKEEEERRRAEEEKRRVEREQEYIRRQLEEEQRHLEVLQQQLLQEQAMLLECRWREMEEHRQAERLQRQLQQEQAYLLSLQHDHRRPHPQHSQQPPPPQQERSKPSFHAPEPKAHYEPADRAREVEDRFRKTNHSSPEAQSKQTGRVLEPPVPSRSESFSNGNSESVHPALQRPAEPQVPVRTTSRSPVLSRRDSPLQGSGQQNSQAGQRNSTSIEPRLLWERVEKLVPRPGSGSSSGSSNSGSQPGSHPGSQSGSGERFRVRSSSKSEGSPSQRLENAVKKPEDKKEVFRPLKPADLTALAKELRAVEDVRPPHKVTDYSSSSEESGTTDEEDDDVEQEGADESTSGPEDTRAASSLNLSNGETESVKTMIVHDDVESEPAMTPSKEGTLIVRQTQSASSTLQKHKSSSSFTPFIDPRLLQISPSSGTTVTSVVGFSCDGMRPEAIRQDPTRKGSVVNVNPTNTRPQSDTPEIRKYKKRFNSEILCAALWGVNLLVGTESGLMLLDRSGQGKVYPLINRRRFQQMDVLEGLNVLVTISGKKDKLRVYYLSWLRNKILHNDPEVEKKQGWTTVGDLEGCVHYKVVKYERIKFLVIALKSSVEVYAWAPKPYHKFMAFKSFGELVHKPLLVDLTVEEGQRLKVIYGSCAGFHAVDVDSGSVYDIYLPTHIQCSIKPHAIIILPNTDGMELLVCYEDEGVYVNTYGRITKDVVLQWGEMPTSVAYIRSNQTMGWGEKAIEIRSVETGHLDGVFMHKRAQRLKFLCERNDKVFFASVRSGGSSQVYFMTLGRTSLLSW
CDK4 CCND3 (human), sequence (P11802 whole entry, looked up): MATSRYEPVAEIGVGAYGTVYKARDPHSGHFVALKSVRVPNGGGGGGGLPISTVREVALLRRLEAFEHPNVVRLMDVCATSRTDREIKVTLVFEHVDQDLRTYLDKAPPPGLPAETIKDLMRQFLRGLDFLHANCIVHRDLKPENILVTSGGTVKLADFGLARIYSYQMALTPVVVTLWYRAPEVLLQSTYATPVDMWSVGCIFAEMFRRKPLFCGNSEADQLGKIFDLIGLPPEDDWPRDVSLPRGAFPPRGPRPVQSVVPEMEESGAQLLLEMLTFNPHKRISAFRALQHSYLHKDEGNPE
CDK4 CCND3 (human), sequence (P30281 whole entry, looked up): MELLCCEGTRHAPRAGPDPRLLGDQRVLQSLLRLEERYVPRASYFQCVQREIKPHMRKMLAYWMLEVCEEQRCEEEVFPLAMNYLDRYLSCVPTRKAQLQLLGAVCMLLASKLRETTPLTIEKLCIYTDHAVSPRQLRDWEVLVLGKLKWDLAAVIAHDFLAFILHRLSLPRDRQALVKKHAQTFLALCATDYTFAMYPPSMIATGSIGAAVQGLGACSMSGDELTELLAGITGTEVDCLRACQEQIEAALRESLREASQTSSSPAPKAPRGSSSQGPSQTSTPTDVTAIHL
NEK7 (human), sequence (Q8TDX7 whole entry, looked up): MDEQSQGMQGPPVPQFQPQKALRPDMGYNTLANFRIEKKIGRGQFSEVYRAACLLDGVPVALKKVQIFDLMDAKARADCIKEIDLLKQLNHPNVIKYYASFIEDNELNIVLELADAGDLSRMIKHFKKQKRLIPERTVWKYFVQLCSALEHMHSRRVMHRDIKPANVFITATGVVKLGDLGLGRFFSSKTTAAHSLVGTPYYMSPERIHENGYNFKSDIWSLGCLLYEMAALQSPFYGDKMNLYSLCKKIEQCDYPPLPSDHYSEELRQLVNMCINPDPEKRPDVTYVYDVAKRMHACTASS

| Compound | kinase still bound, per cent of control (MAP4K4 (human)) [%] | kinase still bound, per cent of control (DMPK (human)) [%] | kinase still bound, per cent of control (ANKK1 (human)) [%] | kinase still bound, per cent of control (BRSK2 (human)) [%] | kinase still bound, per cent of control (NEK7 (human)) [%] | kinase still bound, per cent of control (RPS6KA4 KD1 (human)) [%] | kinase still bound, per cent of control (ITK (human)) [%] | kinase still bound, per cent of control (CDKL1 (human)) [%] | kinase still bound, per cent of control (PIK3C2B (human)) [%] | kinase still bound, per cent of control (RPS6KA2 KD1 (human)) [%] | kinase still bound, per cent of control (VRK2 (human)) [%] | kinase still bound, per cent of control (KDR (human)) [%] | kinase still bound, per cent of control (STK4 (human)) [%] | kinase still bound, per cent of control (DYRK1A (human)) [%] | kinase still bound, per cent of control (CAMKK2 (human)) [%] | kinase still bound, per cent of control (DAPK1 (human)) [%] | kinase still bound, per cent of control (PTK6 (human)) [%] | kinase still bound, per cent of control (PIK3CA (human)) [%] | kinase still bound, per cent of control (PLK3 (human)) [%] | kinase still bound, per cent of control (NEK2 (human)) [%] | further results |
| --- | --- | --- | --- | --- | --- | --- | --- | --- | --- | --- | --- | --- | --- | --- | --- | --- | --- | --- | --- | --- | --- |
| O=c1cc(N2CCOCC2)oc2c(-c3cccc4c3sc3ccccc34)cccc12 | 100 | 89 | 100 | 100 | 100 | 79 | 100 | 87 | 20 | 97 | 100 | 100 | 98 | 61 | 88 | 72 | 98 | 22 | 86 | 96 | kinase still bound, per cent of control (NTRK2 (human)): 100%; kinase still bound, per cent of control (RPS6KA5 KD1 (human)): 100%; kinase still bound, per cent of control (NEK9 (human)): 93%; kinase still bound, per cent of control (TAOK1 (human)): 100%; kinase still bound, per cent of control (CASK (human)): 100%; kinase still bound, per cent of control (CDK17 (human)): 100%; kinase still bound, per cent of control (LATS1 (human)): 100%; kinase still bound, per cent of control (CDK4 CCND3 (human)): 100%; kinase still bound, per cent of control (RIOK2 (human)): 22%; kinase still bound, per cent of control (AKT2 (human)): 51%; kinase still bound, per cent of control (PIP4K2B (human)): 100%; kinase still bound, per cent of control (CDC42BPG (human)): 100%; kinase still bound, per cent of control (MAP3K10 (human)): 100%; kinase still bound, per cent of control (CSNK1G1 (human)): 92%; kinase still bound, per cent of control (CAMK2G (human)): 86%; kinase still bound, per cent of control (RPS6KA3 KD1 (human)): 84%; kinase still bound, per cent of control (PRKCQ (human)): 100%; kinase still bound, per cent of control (MELK (human)): 100%; kinase still bound, per cent of control (PAK3 (human)): 100%; kinase still bound, per cent of control (EPHA5 (human)): 100% |
| CCN1CCN(C(=O)Cc2ccc(Nc3ncc(F)c(Nc4ccc(C(=O)Nc5ccccc5Cl)cc4)n3)cc2)CC1 | 69 | 100 | 36 | 82 | 2.6 | 100 | 52 | 41 | 93 | 65 | 100 | 16 | 98 | 47 | 48 | 3.8 | 16 | 83 | 82 | 87 | kinase still bound, per cent of control (NTRK2 (human)): 27%; kinase still bound, per cent of control (RPS6KA5 KD1 (human)): 100%; kinase still bound, per cent of control (NEK9 (human)): 18%; kinase still bound, per cent of control (TAOK1 (human)): 62%; kinase still bound, per cent of control (CASK (human)): 82%; kinase still bound, per cent of control (CDK17 (human)): 35%; kinase still bound, per cent of control (LATS1 (human)): 100%; kinase still bound, per cent of control (CDK4 CCND3 (human)): 21%; kinase still bound, per cent of control (RIOK2 (human)): 17%; kinase still bound, per cent of control (AKT2 (human)): 95%; kinase still bound, per cent of control (PIP4K2B (human)): 1.6%; kinase still bound, per cent of control (CDC42BPG (human)): 66%; kinase still bound, per cent of control (MAP3K10 (human)): 7.2%; kinase still bound, per cent of control (CSNK1G1 (human)): 100%; kinase still bound, per cent of control (CAMK2G (human)): 55%; kinase still bound, per cent of control (RPS6KA3 KD1 (human)): 32%; kinase still bound, per cent of control (PRKCQ (human)): 74%; kinase still bound, per cent of control (MELK (human)): 55%; kinase still bound, per cent of control (PAK3 (human)): 12%; kinase still bound, per cent of control (EPHA5 (human)): 92% |
